Laboratory results taken from ChEMBL document CHEMBL5518169, “Discovery of a 1,6-naphthyridin-4-one-based AXL inhibitor with improved pharmacokinetics and enhanced in vivo antitumor efficacy” (Eur J Med Chem, 2024).
Activity calls are given as the source filed them. The rule behind the calls is not given here.

What was measured:
[1] = Toxicity in mouse xenografted with mouse BaF3/TEL-AXL cells assessed as body weight loss at 50 mg/kg, po administered for 7 days; type: organism-based; details: in vivo, 168 h, time 7 day
[2] = Antitumor activity against mouse BaF3/TEL-AXL cells xenografted in mouse assessed as tumor growth inhibition at 50 mg/kg, po administered for 7 days; type: functional; details: 168 h, time 7 day, read-out: TGI
[3] = Toxicity in mouse xenografted with mouse BaF3/TEL-AXL cells assessed as body weight loss at 25 to 100 mg/kg, po administered for 7 days; type: organism-based; details: in vivo, 168 h, dose 25-100 mg/kg, time 7 day
[4] = Half life in Sprague-Dawley rat at 3 mg/kg, po measured upto 24 hrs by LC-MS/MS analysis; type: ADME, organism-based; details: in vivo
BaF3/TEL-AXL = experiment: Antitumor activity against mouse BaF3/TEL-AXL cells xenografted in mouse assessed as tumor regression at 50 to 100 mg/kg, po administered for 7 days; type: functional, organism-based; details: dose 50-100 mg/kg, time 7.0 day
[5] = Metabolic stability in human liver microsomes assessed as parent compound remaining preincubated with compound for 10 mins followed by NADPH addition and measured after 60 mins by LC-MS/MS analysis; type: ADME, Microsome; details: time 70 min, read-out: Stability
[6] = Antitumor activity against mouse BaF3/TEL-AXL cells xenografted in mouse assessed as tumor growth inhibition at 25 mg/kg, po administered for 7 days; type: functional; details: 168 h, time 7 day, read-out: TGI
cells = details: Mus musculus, BaF3/TEL-AXL, 72 h
Description: Antiproliferative activity against mouse BaF3/TEL-AXL cells assessed as inhibition of cell proliferation incubated for 72 hrs by CCK-8 assay

[7] = Antitumor activity against mouse BaF3/TEL-AXL cells xenografted in mouse assessed as tumor growth inhibition at 100 mg/kg, po administered for 7 days; type: functional; details: 168 h, time 7 day, read-out: TGI
[8] = AUC (0 to infinity) in Sprague-Dawley rat at 3 mg/kg, po measured upto 24 hrs by LC-MS/MS analysis; type: ADME, organism-based; details: in vivo
[9] = Cmax in Sprague-Dawley rat at 3 mg/kg, po measured upto 24 hrs by LC-MS/MS analysis; type: ADME, organism-based; details: in vivo
MKN-45 = experiment: cells; details: Homo sapiens, MKN-45, 72 h
Description: Antiproliferative activity against human MKN-45 cells assessed as inhibition of cell proliferation incubated for 72 hrs by CCK-8 assay

[10] = Tmax in Sprague-Dawley rat at 3 mg/kg, po measured upto 24 hrs by LC-MS/MS analysis; type: ADME, organism-based; details: in vivo
[11] = Metabolic stability in human liver microsomes assessed as half life preincubated with compound for 10 mins followed by NADPH addition and measured after 60 mins by LC-MS/MS analysis; type: ADME, Microsome; details: time 70 min
[12] = target: T1, Tyrosine-protein kinase receptor UFO (Mus musculus) (UniProt Q00993); experiment: Inhibition of AXL phosphorylation in mouse BaF3/TEL-AXL cells incubated for 2 hrs by Western blot analysis; type: cell-based; details: dose 2-500 nM
T1 sequence (whole entry): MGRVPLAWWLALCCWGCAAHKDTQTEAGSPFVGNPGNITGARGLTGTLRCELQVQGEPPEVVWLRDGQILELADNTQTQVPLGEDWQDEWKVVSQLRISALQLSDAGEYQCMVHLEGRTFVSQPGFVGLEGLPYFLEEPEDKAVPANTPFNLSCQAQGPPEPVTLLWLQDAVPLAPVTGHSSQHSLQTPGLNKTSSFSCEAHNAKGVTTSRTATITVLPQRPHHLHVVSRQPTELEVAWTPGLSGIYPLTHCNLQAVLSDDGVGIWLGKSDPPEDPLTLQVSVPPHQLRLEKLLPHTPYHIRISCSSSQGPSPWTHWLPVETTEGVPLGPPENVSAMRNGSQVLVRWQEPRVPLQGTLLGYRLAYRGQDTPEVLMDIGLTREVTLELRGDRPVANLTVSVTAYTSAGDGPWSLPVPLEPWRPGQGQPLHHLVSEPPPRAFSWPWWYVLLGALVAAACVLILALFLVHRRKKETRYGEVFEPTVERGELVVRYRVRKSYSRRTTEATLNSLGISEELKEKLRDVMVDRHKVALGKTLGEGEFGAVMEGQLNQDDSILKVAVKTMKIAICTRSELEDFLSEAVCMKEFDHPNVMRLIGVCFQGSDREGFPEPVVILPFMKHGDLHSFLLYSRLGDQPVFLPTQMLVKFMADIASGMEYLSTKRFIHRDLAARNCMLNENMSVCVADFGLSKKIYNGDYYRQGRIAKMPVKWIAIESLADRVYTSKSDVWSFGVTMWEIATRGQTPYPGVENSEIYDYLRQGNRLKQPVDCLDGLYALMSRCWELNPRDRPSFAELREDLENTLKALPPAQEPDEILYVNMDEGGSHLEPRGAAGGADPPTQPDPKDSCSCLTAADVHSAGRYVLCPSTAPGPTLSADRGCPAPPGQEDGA

[13] = target: RAC-alpha serine/threonine-protein kinase (Mus musculus) (UniProt P31750); experiment: Inhibition of AKT phosphorylation in mouse BaF3/TEL-AXL cells incubated for 2 hrs by Western blot analysis; type: cell-based; details: dose 2-500 nM
Chain of RAC-alpha serine/threonine-protein kinase (Mus musculus) (P31750 whole entry): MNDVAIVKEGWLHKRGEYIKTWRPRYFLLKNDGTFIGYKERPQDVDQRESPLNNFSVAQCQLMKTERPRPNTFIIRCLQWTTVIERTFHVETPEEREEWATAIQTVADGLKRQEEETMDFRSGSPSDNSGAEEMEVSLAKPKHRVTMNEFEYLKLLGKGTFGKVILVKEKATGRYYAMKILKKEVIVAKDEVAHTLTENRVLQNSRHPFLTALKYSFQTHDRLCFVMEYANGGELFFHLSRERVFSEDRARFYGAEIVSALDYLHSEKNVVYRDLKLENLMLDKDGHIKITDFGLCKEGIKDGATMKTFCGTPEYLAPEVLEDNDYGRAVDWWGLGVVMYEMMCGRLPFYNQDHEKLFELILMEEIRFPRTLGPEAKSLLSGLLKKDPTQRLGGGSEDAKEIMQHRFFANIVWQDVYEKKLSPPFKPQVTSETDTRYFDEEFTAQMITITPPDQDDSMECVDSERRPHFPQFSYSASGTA

[14] = MRT (0 to infinity) in Sprague-Dawley rat at 3 mg/kg, po measured upto 24 hrs by LC-MS/MS analysis; type: ADME, organism-based; details: in vivo
[15] = target: T2, Tyrosine-protein kinase receptor UFO (Homo sapiens, UniProt P30530)
T2 sequence (P30530 whole entry): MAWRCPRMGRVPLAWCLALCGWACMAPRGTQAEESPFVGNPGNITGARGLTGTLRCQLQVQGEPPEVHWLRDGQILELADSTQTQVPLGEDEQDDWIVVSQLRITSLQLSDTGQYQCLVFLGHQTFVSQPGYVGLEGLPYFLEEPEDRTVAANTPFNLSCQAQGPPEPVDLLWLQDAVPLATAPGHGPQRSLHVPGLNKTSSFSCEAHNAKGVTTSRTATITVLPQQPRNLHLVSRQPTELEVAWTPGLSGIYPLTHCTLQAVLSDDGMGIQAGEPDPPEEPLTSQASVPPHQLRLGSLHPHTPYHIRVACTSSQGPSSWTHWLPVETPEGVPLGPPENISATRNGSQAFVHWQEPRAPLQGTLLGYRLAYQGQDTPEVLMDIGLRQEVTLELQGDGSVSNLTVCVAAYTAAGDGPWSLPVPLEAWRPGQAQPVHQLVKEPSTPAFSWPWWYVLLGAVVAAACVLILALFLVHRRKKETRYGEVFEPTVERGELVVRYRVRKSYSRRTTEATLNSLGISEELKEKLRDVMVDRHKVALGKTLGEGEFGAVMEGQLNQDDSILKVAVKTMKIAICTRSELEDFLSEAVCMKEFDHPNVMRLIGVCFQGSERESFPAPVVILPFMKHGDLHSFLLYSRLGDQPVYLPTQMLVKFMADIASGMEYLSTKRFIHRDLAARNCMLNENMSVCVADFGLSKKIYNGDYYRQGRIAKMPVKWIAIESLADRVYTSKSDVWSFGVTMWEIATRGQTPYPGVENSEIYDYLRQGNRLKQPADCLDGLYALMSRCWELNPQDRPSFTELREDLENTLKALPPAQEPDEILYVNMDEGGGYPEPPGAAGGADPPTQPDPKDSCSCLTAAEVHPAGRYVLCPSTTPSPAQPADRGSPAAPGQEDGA
Description: Inhibition of AXL (unknown origin) by ELISA analysis

Row | half-life [4] [h] | remaining at 1 h [5] [%] | IC50 (cells) [nM] | AUC(0-inf) [8] [ng·h/mL] | Cmax [9] [ng/mL] | IC50 (MKN-45) [nM] | Tmax [10] [h] | half-life [11] [h] | inhibition [12] | inhibition [13] | MRT inf [14] [h] | IC50 [15] [nM] | SMILES | Activity [1] | inhibition in vivo at 50 mg/kg [2] [%] | Activity [3] | Activity (BaF3/TEL-AXL) | inhibition in vivo at 25 mg/kg [6] [%] | inhibition in vivo at 100 mg/kg [7] [%]
1 |  |  |  |  |  |  |  |  |  |  |  |  | Nc1nc(Nc2ccc3c(c2)CC[C@@H](N2CCCC2)CC3)nn1-c1cc2c(nn1)-c1ccccc1CCC2 [BEMCENTINIB] | Non-Toxic | 107 |  |  |  | 
2 | 10.1 | 76.3 | < 1 | 59800 | 2910 | > 100 | 2 | 2.57 | Dose-Dependent Effect | Dose-Dependent Effect | 16.5 |  | CC(C)n1cc(-c2ccc(F)cc2)c(=O)c2c(Nc3ccc(-c4cc(-c5cnn(C)c5)cnc4N)c(F)c3)nccc21 |  | 104 | Non-Toxic | Active | 89.8 | 105
3 | 3.82 | 47 | 1 | 1300 | 187 | > 100 | 1.5 | 0.765 |  |  | 5.96 |  | CC(C)n1cc(-c2ccc(F)cc2)c(=O)c2c(Nc3ccc(-c4cn(C)c5ncnc(N)c45)c(F)c3)nccc21 |  |  |  |  |  | 
4 |  |  |  |  |  |  |  |  |  |  |  | < 0.2 | CC(C)n1cc(C(=O)Nc2cc(F)c(-c3c[nH]c4ncnc(N)c34)cc2F)c(=O)c(-c2ccc(F)cc2)c1 |  |  |  |  |  | 
